The results in this text go back to patent US8222219B2, “Glucopyranoside compound” (Mitsubishi Tanabe Pharma Corporation, priority 2003, dated 2012).

This test addresses T1, human SGLT2 (Homo sapiens, UniProt P31639).
T1 construct: expressed in transfected cells; host or cells: CHOK1 (CHO-K1) cells, kept under Geneticin selection
T1 sequence (P31639 1-672): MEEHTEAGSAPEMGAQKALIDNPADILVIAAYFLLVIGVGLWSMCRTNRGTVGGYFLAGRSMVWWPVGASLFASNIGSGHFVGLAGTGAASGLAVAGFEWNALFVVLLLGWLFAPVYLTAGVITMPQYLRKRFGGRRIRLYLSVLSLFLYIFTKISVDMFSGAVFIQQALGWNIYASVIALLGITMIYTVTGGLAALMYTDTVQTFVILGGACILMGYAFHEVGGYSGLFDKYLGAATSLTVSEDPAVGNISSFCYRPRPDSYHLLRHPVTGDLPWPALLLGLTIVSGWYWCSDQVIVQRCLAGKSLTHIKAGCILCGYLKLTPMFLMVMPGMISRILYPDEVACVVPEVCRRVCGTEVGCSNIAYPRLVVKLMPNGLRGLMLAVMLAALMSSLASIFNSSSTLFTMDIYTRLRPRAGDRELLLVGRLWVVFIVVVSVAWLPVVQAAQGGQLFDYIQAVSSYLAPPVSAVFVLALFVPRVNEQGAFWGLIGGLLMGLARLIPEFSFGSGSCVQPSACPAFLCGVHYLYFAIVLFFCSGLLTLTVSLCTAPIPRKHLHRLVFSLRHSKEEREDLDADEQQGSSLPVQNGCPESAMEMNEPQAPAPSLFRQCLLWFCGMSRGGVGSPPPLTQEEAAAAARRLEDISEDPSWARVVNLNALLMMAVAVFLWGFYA
Nature of the test: Assay for SGLT2 inhibition (14C-AMG uptake in CHOK1 cells expressing human SGLT2). The class given is cell-based. As to conditions: CHOK1 cells expressing human SGLT2; 14C-AMG uptake 0.5 mM, 2 hours at 37° C.; read-out: IC50. How it is done:
1. Assay for SGLT2 Inhibition
Compounds described in the above examples were used for the SGLT2 inhibition assay.
CHOK1 cells expressing human SGLT2 were seeded in 24-well plates at a density of 400,000 cells/well in F-12 nutrient mixture (Ham's F-12) containing 10% fetal bovine serum, 400 μg/ml Geneticin, 50 units/ml sodium penicillin G (Gibco-BRL) and 50 μg/ml streptomycin sulfate. […] Test compounds were dissolved in DMSO. The final concentration of DMSO was 0.5%. The transport reaction was initiated by addition of 50 μl [^14C]-methyl-α-D-glucopyranoside (^14C-AMG) solution (final concentration, 0.5 mM). After incubation for 2 hours at 37° C., the uptake was stopped by aspiration of the incubation mixture, the cells were washed three times with ice-cold PBS. Then, cells were solubilized with 0.3 N NaOH and aliquots were taken for determination of radioactivity by a liquid scintillation counter. Nonspecific AMG uptake was defined as that which occurred in the presence of 100 μM of phlorizin, a specific inhibitor of sodium-dependent glucose cotransporter. Specific uptake was normalized for the protein concentrations measured by the method of Bradford.

Broadly, the IC50 is the midpoint of a concentration-inhibition curve. For `CCOc1ccc(-c2ccc(Cc3cc([C@@H]4O[C@H](CO)[C@@H](O)[C@H](O)[C@H]4O)ccc3C)s2)cc1` [Example 232], the half-inhibitory concentration (IC50) came to 4 nM.
In the case of `Cc1ccc([C@@H]2O[C@H](CO)[C@@H](O)[C@H](O)[C@H]2O)cc1Cc1ccc(-c2cccc(F)c2)s1` [Example 83] it was 1.3 nM; in that of `OC[C@H]1O[C@@H](c2ccc(Cl)c(Cc3ccc(-c4cscn4)s3)c2)[C@H](O)[C@@H](O)[C@@H]1O` [Example 207], 0.6 nM; in that of `Cc1ccc([C@@H]2O[C@H](CO)[C@@H](O)[C@H](O)[C@H]2O)cc1Cc1ccc(-c2ccc(C#N)c(F)c2)s1` [Example 219], 6.7 nM.
In the case of `OC[C@H]1O[C@@H](c2ccc(Cl)c(Cc3ccc(-c4cccc(F)c4)s3)c2)[C@H](O)[C@@H](O)[C@@H]1O` [Example 78] it was 1.7 nM; in that of `CCOC(=O)c1ccc(-c2ccc(Cc3cc([C@@H]4O[C@H](CO)[C@@H](O)[C@H](O)[C@H]4O)ccc3Cl)s2)cc1` [Example 191, 1-(β-D-glucopyranosyl)-4-chloro-3-(5-(4-ethoxycarbonylphenyl)-2-thienylmethyl)benzene], 7.7 nM.
On to `OC[C@H]1O[C@@H](c2ccc(Cl)c(Cc3ccc(-c4cccc(Cl)c4)s3)c2)[C@H](O)[C@@H](O)[C@@H]1O` [Example 88], for which the IC50 was found to be 2.6 nM.
Next, `Cc1cccc(-c2ccc(Cc3cc([C@@H]4O[C@H](CO)[C@@H](O)[C@H](O)[C@H]4O)ccc3Cl)s2)c1` [Example 87]: 3.4 nM; `Cc1ccc([C@@H]2O[C@H](CO)[C@@H](O)[C@H](O)[C@H]2O)cc1Cc1cc2cc(OCCF)ccc2s1` [Example 230]: 4 nM.
On to `Cc1cc(-c2ccc(Cc3cc([C@@H]4O[C@H](CO)[C@@H](O)[C@H](O)[C@H]4O)ccc3Cl)s2)ccn1` [Example 253], for which the IC50 came out at 1.6 nM.
In the case of `OC[C@H]1O[C@@H](c2ccc(F)c(Cc3ccc(-c4cccc(F)n4)s3)c2)[C@H](O)[C@@H](O)[C@@H]1O` [Example 248] it was 5.1 nM; in that of `COc1ccc2sc(Cc3cc([C@@H]4O[C@H](CO)[C@@H](O)[C@H](O)[C@H]4O)ccc3C)cc2c1` [Example 229], 2.7 nM.
As to `Cc1ccc([C@@H]2O[C@H](CO)[C@@H](O)[C@H](O)[C@H]2O)cc1Cc1ccc(-c2cccs2)s1` [Example 211], the IC50 stood at 1.2 nM.
In the case of `Cc1ccc([C@@H]2O[C@H](CO)[C@@H](O)[C@H](O)[C@H]2O)cc1Cc1ccc(-c2ccc(C#N)nc2)s1` [Example 186, 1-(β-D-glucopyranosyl)-3-(5-(2-cyano-5-pyridyl)-2-thienylmethyl)-4-methylbenzene] it was 5.4 nM; in that of `CCOc1ccc(-c2ccc(Cc3cc([C@@H]4O[C@H](CO)[C@@H](O)[C@H](O)[C@H]4O)ccc3Cl)s2)cc1` [Example 71], 6.6 nM; in that of `CCOc1ccc2sc(Cc3cc([C@@H]4O[C@H](CO)[C@@H](O)[C@H](O)[C@H]4O)ccc3C)cc2c1` [Example 231], 3.5 nM.
Next, `Cc1ccc([C@@H]2O[C@H](CO)[C@@H](O)[C@H](O)[C@H]2O)cc1Cc1ccc(-c2cccc(Cl)c2)s1` [Example 89]: 3 nM; `OCc1ccc(-c2ccc(Cc3cc([C@@H]4O[C@H](CO)[C@@H](O)[C@H](O)[C@H]4O)ccc3Cl)s2)cc1` [Example 264, 1-(β-D-glucopyranosyl)-4-chloro-3-(5-(4-hydroxymethylphenyl)-2-thienylmethyl)benzene]: 1.5 nM; `OC[C@H]1O[C@@H](c2ccc(Cl)c(Cc3ccc(-c4ccc(F)cc4)s3)c2)[C@H](O)[C@@H](O)[C@@H]1O` [Example 70]: 7 nM.
Next, `OC[C@H]1O[C@@H](c2cc(Cc3ccc(-c4cccc(F)n4)s3)c(F)c3ccccc23)[C@H](O)[C@@H](O)[C@@H]1O` [Example 255]: 6.5 nM; `COc1cccc(-c2ccc(Cc3cc([C@@H]4O[C@H](CO)[C@@H](O)[C@H](O)[C@H]4O)ccc3C)s2)n1` [Example 208]: 2.4 nM.
For `OC[C@H]1O[C@@H](c2ccc(F)c(Cc3ccc(-c4cccc(F)c4)s3)c2)[C@H](O)[C@@H](O)[C@@H]1O` [Example 80], the IC50 was 6.8 nM.
Next, `Cc1ccc([C@@H]2O[C@H](CO)[C@@H](O)[C@H](O)[C@H]2O)cc1Cc1ccc(-c2ccc3c(c2)OCO3)s1` [Example 145]: 4 nM; `Nc1ccc(-c2ccc(Cc3cc([C@@H]4O[C@H](CO)[C@@H](O)[C@H](O)[C@H]4O)ccc3Cl)s2)cc1` [Example 197, 1-(β-D-glucopyranosyl)-3-(5-(4-aminophenyl)-2-thienylmethyl)-4-chlorobenzene]: 2 nM.
As for `N#Cc1ccc(-c2ccc(Cc3cc([C@@H]4O[C@H](CO)[C@@H](O)[C@H](O)[C@H]4O)ccc3Cl)s2)cc1F` [Example 183, 1-(β-D-glucopyranosyl)-4-chloro-3-(5-(4-cyano-3-fluorophenyl)-2-thienylmethyl)benzene], the 50% inhibitory concentration (IC50) came out at 9.5 nM.
In the case of `COc1c(Cc2ccc(-c3ncccn3)s2)cc([C@@H]2O[C@H](CO)[C@@H](O)[C@H](O)[C@H]2O)c2ccccc12` [Example 266] it was 3.2 nM.
Next, `Cc1ccc([C@@H]2O[C@H](CO)[C@@H](O)[C@H](O)[C@H]2O)cc1Cc1ccc(-c2cc(F)cc(F)c2)s1` [Example 201]: 8.2 nM.
With `Cc1ccc([C@@H]2O[C@H](CO)[C@@H](O)[C@H](O)[C@H]2O)cc1Cc1ccc(-c2cccc(N(C)C)c2)s1` [Example 122, 1-(β-D-glucopyranosyl)-3-(5-(3-dimethylaminophenyl)-2-thienylmethyl)-4-methylbenzene], the IC50 was determined as 8.2 nM.
On to `OC[C@H]1O[C@@H](c2ccc(Cl)c(Cc3ccc(-c4cncs4)s3)c2)[C@H](O)[C@@H](O)[C@@H]1O` [Example 204], for which the half-inhibitory concentration (IC50) worked out at 1.4 nM.
As to `Cc1ccc([C@@H]2O[C@H](CO)[C@@H](O)[C@H](O)[C@H]2O)cc1Cc1ccc(-c2ccc(OC(F)F)cc2)s1` [Example 237], the IC50 came out at 2.8 nM.
As to `OC[C@H]1O[C@@H](c2ccc(Cl)c(Cc3ccc(-c4ncc(F)s4)s3)c2)[C@H](O)[C@@H](O)[C@@H]1O` [Example 256], the IC50 was 3.1 nM.
Turning to `Cc1ccc([C@@H]2O[C@H](CO)[C@@H](O)[C@H](O)[C@H]2O)cc1Cc1ccc(-c2cscn2)s1` [Example 210], the half-maximal inhibitory concentration (IC50) came out at 1 nM.
For `Cc1cccc(-c2ccc(Cc3cc([C@@H]4O[C@H](CO)[C@@H](O)[C@H](O)[C@H]4O)ccc3C)s2)c1` [Example 86], the IC50 was determined as 2.8 nM.
In the case of `Cc1cc(-c2ccc(Cc3cc([C@@H]4O[C@H](CO)[C@@H](O)[C@H](O)[C@H]4O)ccc3C)s2)on1` [Example 246] it was 6.4 nM.
Next, `CCOc1ccc2cc(Cc3cc([C@@H]4O[C@H](CO)[C@@H](O)[C@H](O)[C@H]4O)ccc3C)sc2c1` [Example 228]: 3.6 nM.
Next, `CCOc1cccc(-c2ccc(Cc3cc([C@@H]4O[C@H](CO)[C@@H](O)[C@H](O)[C@H]4O)ccc3Cl)s2)c1` [Example 72]: 4.6 nM; `CCOc1cccc(-c2ccc(Cc3cc([C@@H]4O[C@H](CO)[C@@H](O)[C@H](O)[C@H]4O)ccc3Cl)s2)n1` [Example 173, 1-(β-D-glucopyranosyl)-4-chloro-3-(5-(6-ethoxy-2-pyridyl)-2-thienylmethyl)benzene]: 8 nM.
Consider `Cc1ccc([C@@H]2O[C@H](CO)[C@@H](O)[C@H](O)[C@H]2O)cc1Cc1ccc(-c2cccc(C#N)n2)s1` [Example 225], for which the concentration for half-maximal inhibition (IC50) came to 1.5 nM.
Next, `Cc1ccc([C@@H]2O[C@H](CO)[C@@H](O)[C@H](O)[C@H]2O)cc1Cc1ccc(-c2ccc(F)c(C#N)c2)s1` [Example 185, 1-(β-D-glucopyranosyl)-4-methyl-3-(5-(3-cyano-4-fluorophenyl)-2-thienylmethyl)benzene]: 5.6 nM; `OC[C@H]1O[C@@H](c2ccc(Cl)c(Cc3ccc(-c4ccccc4F)s3)c2)[C@H](O)[C@@H](O)[C@@H]1O` [Example 69]: 7.9 nM.
Next, `COc1ccc(-c2ccc(Cc3cc([C@@H]4O[C@H](CO)[C@@H](O)[C@H](O)[C@H]4O)ccc3C)s2)cn1` [Example 209]: 3.9 nM; `CCOc1cccc(-c2ccc(Cc3cc([C@@H]4O[C@H](CO)[C@@H](O)[C@H](O)[C@H]4O)ccc3C)s2)c1` [Example 212]: 2.6 nM.
